Assay results: patent US20070167377A1, “Inhibitors of glycinamide ribonucleotide transformylase” (priority 2002, published 2007)
pIC50, pKi: −log10 of the molar value. “Also recorded” adds a separate entry of the source. Like-named read-outs stand apart in the source and are kept apart here.

Tests used:
CCRF-CEM cell line = experiment: CCRF-CEM cytotoxic assay; assay type: cell-based, human; details: for pIC50: Homo sapiens
Procedure: (§1) The cytotoxic activity of the compounds was measured using CCRF-CEM human leukemia cells, as described previously (Boger, D. L., et al., Bioorg. Med. Chem. 1997, 5, 1847-1852). Two mutant cell lines, CCRF-CEM/MTX and CCRF-CEM/FPGS^− were used to determine the dependence on the reduced folate active transport system and folylpolyglutamate synthetase (FPGS), respectively (Jansen, G., et al., Cancer Res. 1989, 49, 2455-2459).

CCRF-CEM/MTX cell line = experiment: Cytotoxic assay, reduced folate carrier deficient mutant; assay type: cell-based, human; details: impaired reduced folate carrier; for pIC50: Homo sapiens
Procedure: as §1

[1] = tested on: CCRF-CEM/FPGS^− cell line; experiment: Cytotoxic assay, FPGS deficient mutant; assay type: cell-based, human; details: lacks folylpolyglutamate synthase
Procedure: as §1

[2] = target: T1, recombinant human GAR Tfase (rhGAR Tfase) (Homo sapiens, UniProt P22102); experiment: Recombinant human GAR Tfase inhibition; assay type: biochemical; details: for potency increase of γ-pentaglutamate over monoglutamate: 21 vs 3, 22 vs 15
T1 construct: includes residues 808-1010 from the human trifunctional enzyme (purD-purM-purN); hexa-histidine (C); made in house; host or cells: E. coli BL21 (DE3) Gold, pet22b vector
T1 sequence (P22102 808-1010): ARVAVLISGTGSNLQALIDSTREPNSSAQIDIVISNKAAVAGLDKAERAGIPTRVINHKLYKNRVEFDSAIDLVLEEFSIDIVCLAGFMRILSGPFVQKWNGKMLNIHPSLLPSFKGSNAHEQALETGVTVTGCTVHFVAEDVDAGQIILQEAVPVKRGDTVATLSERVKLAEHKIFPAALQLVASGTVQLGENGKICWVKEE
Procedure: The gene was subcloned into the pet22b vector using the Ndel/Xhol cloning site with ahexa-histidine tag at the C-terminus. The plasmid was transformed into the E. coli expression strain BL21 (DE3) Gold. […] The purified protein was used in the inhibition assays, cytotoxic assays and crystallization experiments.
Briefly, each compound was dissolved in dimethyl sulfoxide (DMSO) and then diluted in assay buffer.

E. coli GAR Tfase = E. coli GAR Tfase (Escherichia coli, UniProt P08179); experiment: E. coli GAR Tfase inhibition; assay type: biochemical; details: for fold less potent than the corresponding monoglutamate: α-pentaglutamate vs monoglutamate (25 vs 3, 26 vs 15)
Procedure: (§2) GAR and AICAR Tfase inhibition studies were conducted as previously detailed^28 with the exception that the AICAR Tfase inhibition was conducted in the absence of 5 mM β-mercaptoethanol and screened with 10 nM enzyme, […] inhibitor and […] of cofactor. The DHFR inhibition study was conducted as previously detailed with 10 nM enzyme, […] H2F, […] NADPH and […] inhibitor.
The Ki values for the folate analogues were measured as previously described (Boger, D. L., et al., Bioorg. Med. Chem. 1997, 5, 1817-1830). Briefly, each compound was dissolved in dimethyl sulfoxide (DMSO) and then diluted in assay buffer. […] Thus, all assays were conducted by mixing 10 μM 10-formyl-5,8-dideazafolate (fDDF), 20 μM inhibitor in total volume of 1 mL buffer (0.1 M HEPES, pH 7.5) at 26° C., and the reaction initiated by the addition of 76 nM E. coli or human GAR Tfase. The assay monitors the deformylation of fDDF (Δε=18.9 mM^−1 cm^−1 at 295 nm) resulting from the transfer of the formyl group to β-GAR.

human AICAR Tfase = human AICAR Tfase (Homo sapiens, UniProt P31939); experiment: AICAR Tfase inhibition; assay type: biochemical; details: for fold enhanced binding affinity / more potent than the corresponding monoglutamate: 21 vs 3, 22 vs 15, 26 vs 15
Procedure: as §2

Chemical stability = assay type: physicochemical
[3] = target: thymidylate synthetase (TS) (Homo sapiens, UniProt P04818); experiment: Thymidylate synthetase inhibition; assay type: biochemical; details: TS
DHFR = DHFR (Escherichia coli, UniProt P0ABQ4); experiment: DHFR inhibition (101, 102); assay type: biochemical; details: DHFR
[4] = purines (hypoxanthine) absent in the media
[5] = media supplemented with a purine

Row | Structure (SMILES) | pIC50 (CCRF-CEM cell line; purines absent in the media) | cytotoxic activity (in words) (CCRF-CEM/MTX cell line) | cytotoxic activity (in words) [1] | inhibition of / binding affinity for E. coli GAR Tfase (in words) (E. coli GAR Tfase) | cytotoxic activity (in words) (CCRF-CEM cell line) | pIC50 (CCRF-CEM/MTX cell line) | other results
1 | Nc1nc2c(c(=O)[nH]1)C[C@@H](CCc1ccc(C(=O)N[C@@H](CCC(=O)O)C(=O)O)cc1)CN2 [Lometrexol, (6R)-5,10-dideazatetrahydrofolate, reference compound] | 6.82 | lost activity | lacked or lost activity | – | – | – | pIC50 (CCRF-CEM cell line; [4]): 6.64; cytotoxic activity (in words) (CCRF-CEM cell line; [5]): no activity
2 | CN(C)N=CC(CCCc1c(N)nc(N)[nH]c1=O)c1ccc(C(=O)N[C@@H](CCC(=O)N[C@@H](CCC(=O)N[C@@H](CCC(=O)N[C@@H](CCC(=O)N[C@@H](CCC(=O)O)C(=O)O)C(=O)O)C(=O)O)C(=O)O)C(=O)O)cc1 (stereo partly drawn) [Compound 22, N{4-[5-(2,4-Diamino-6(1H)-pyrimidinon-5-yl)-1-(dimethylhydrazono)pent-2-yl]benzoyl}-L-γ-glutamyl-L-γ-glutamyl-L-γ-glutamyl-L-γ-glutamyl-L-γ-glutamic Acid] | – | – | – | only marginal enhanced binding affinity | little or no cytotoxic activity | – | potency increase of γ-pentaglutamate over monoglutamate [2]: 5 fold; fold enhanced binding affinity / more potent than the corresponding monoglutamate (human AICAR Tfase): 140 fold
3 | Nc1nc(N)c(CCCC(C(=O)C(F)(F)F)c2ccc(C(=O)O)cc2)c(=O)[nH]1 (centres unmarked) [Compound 111, 4-[4-(2,4-diamino-6-oxo-1,6-dihydropyrimidin-5-yl)-1-(2,2,2-trifluoro-acetyl)butyl]benzoic acid] | – | – | – | – | – | – | inhibition of GAR Tfase (in words) [2]: lack of inhibition
4 | Nc1nc(N)c(CCCC(C=O)c2ccc(C(=O)N[C@@H](CCC(=O)O)C(=O)O)cc2)c(=O)[nH]1 (some centres unmarked) [Compound 3] | – | lack of cytotoxic activity; also recorded: lost activity | inactivity; also recorded: lost cytotoxic activity | – | – | < 4.00 | pKi [2]: 7.85; pKi (E. coli GAR Tfase; E. coli GAR Tfase): 5.22; pIC50 (CCRF-CEM cell line; [4]): 7.22; cytotoxic activity (in words) (CCRF-CEM cell line; [5]): no activity; chemical stability (in words) (Chemical stability): chemical instability; also recorded: facile oxidative decarbonylation
5 | Nc1nc(N)c(CCCCc2ccc(C(=O)N[C@@H](CCC(=O)O)C(=O)O)cc2)c(=O)[nH]1 [DDACTHF, reference compound] | 5.57 | – | – | – | – | – | –
6 | Nc1nc(N)c(CCCC(CO)c2ccc(C(=O)N[C@@H](CCC(=O)O)C(=O)O)cc2)c(=O)[nH]1 (stereo partly drawn) [Compound 17, N-{4-[5-(2,4-Diamino-6(1H)-pyrimidinon-5-yl)-1-hydroxypent-2-yl]benzoyl}-L-glutamic Acid] | – | lack of cytotoxic activity | inactivity | significantly less active | – | < 4.00 | inhibition of AICAR Tfase (in words) (human AICAR Tfase): inactive
7 | Nc1nc(N)c(CCCC(C=O)c2ccc(C(=O)N[C@@H](CCC(=O)N[C@@H](CCC(=O)N[C@@H](CCC(=O)N[C@@H](CCC(=O)N[C@@H](CCC(=O)O)C(=O)O)C(=O)O)C(=O)O)C(=O)O)C(=O)O)cc2)c(=O)[nH]1 (stereo partly drawn) [Compound 21, N-{4-[5-(2,4-Diamino-6(1H)-pyrimidinon-5-yl)-1-formyl-but-2-yl]benzoyl}-L-γ-glutamyl-L-γ-glutamyl-L-γ-glutamyl-L-γ-glutamyl-L-γ-glutamic Acid] | – | – | – | only marginal enhanced binding affinity | little or no cytotoxic activity | – | potency increase of γ-pentaglutamate over monoglutamate [2]: did not enhance; fold enhanced binding affinity / more potent than the corresponding monoglutamate (human AICAR Tfase): 4 fold
8 | CN(C)N=CC(CCCc1c(N)nc(N)[nH]c1=O)c1ccc(C(=O)N[C@@H](CCC(=O)O)C(=O)N[C@@H](CCC(=O)O)C(=O)N[C@@H](CCC(=O)O)C(=O)N[C@@H](CCC(=O)O)C(=O)N[C@@H](CCC(=O)O)C(=O)O)cc1 (stereo partly drawn) [Compound 26, N{4-[5-(2,4-Diamino-6(1H)-pyrimidinon-5-yl)-1-(dimethylhydrazono)pent-2-yl]benzoyl}-L-α-glutamyl-L-α-glutamyl-L-α-glutamyl-L-α-glutamyl-L-α-glutamic Acid] | – | – | – | – | little or no cytotoxic activity | – | orders of magnitude less potent than the corresponding γ-pentaglutamate 22 (E. coli GAR Tfase; 26 vs 22): 1-2 orders of magnitude; fold less potent than the corresponding monoglutamate (E. coli GAR Tfase): 4 fold; fold enhanced binding affinity / more potent than the corresponding monoglutamate (human AICAR Tfase): 4 fold; orders of magnitude less potent than the corresponding γ-pentaglutamate 22 (human AICAR Tfase; 26 vs 22): 1-2 orders of magnitude
9 | Nc1nc(N)c(CCCC(=O)c2ccc(C(=O)N[C@@H](CCC(=O)O)C(=O)O)cc2)c(=O)[nH]1 [Compound 14, N-{4-[4-(2,4-Diamino-6(1H)-pyrimidinon-5-yl)-1-oxo-but-1-yl]benzoyl}-L-glutamic Acid] | > 6.70 | lack of cytotoxic activity | inactivity | significantly less active | – | < 4.00 | inhibition of AICAR Tfase (in words) (human AICAR Tfase): inactive
10 | Nc1nc(N)c(CCCC(C=O)c2ccc(C(=O)N[C@@H](CCC(=O)O)C(=O)N[C@@H](CCC(=O)O)C(=O)N[C@@H](CCC(=O)O)C(=O)N[C@@H](CCC(=O)O)C(=O)N[C@@H](CCC(=O)O)C(=O)O)cc2)c(=O)[nH]1 (stereo partly drawn) [Compound 25, N{4-[5-(2,4-Diamino-6(1H)-pyrimidinon-5-yl)-1-formyl-but-2-yl]benzoyl}-L-α-glutamyl-L-α-glutamyl-L-α-glutamyl-L-α-glutamyl-L-α-glutamic Acid] | – | – | – | – | little or no cytotoxic activity | – | fold less potent than the corresponding monoglutamate (E. coli GAR Tfase): 3 fold; fold less potent than the aldehyde monoglutamate 3 (human AICAR Tfase; 25 vs 3): 16 fold
11 | Nc1nc(N)c(CCCC(c2ccc(C(=O)N[C@@H](CCC(=O)O)C(=O)O)cc2)C(O)C(F)(F)F)c(=O)[nH]1 (stereo partly drawn) [Compound 102, N-{4-[4-(2,4-Diamino-6-oxo-1,6-dihydropyrimidin-5-yl)-1-(2,2,2-trifluoro-1-hydroxy-ethyl)butyl]benzoyl}-L-glutamic acid] | 5.96 | lost activity | lacked or lost activity | – | – | – | pKi [3]: < 4.00; times less potent than 10-CF3CO-DDACTHF ([2]; comparator 101): ca. 50 times; pKi ([2]; rhGAR Tfase, read-out: Ki): 6.05; pKi (DHFR): < 4.00; inhibition of AICAR Tfase (in words) (human AICAR Tfase): inactivity; pKi (human AICAR Tfase; AICAR Tfase): < 4.00
12 | CN(C)N=CC(CCCc1c(N)nc(N)[nH]c1=O)c1ccc(C(=O)N[C@@H](CCC(=O)O)C(=O)O)cc1 (stereo partly drawn) [Compound 15, N{4-[5-(2,4-Diamino-6(1H)-pyrimidinon-5-yl)-1-(dimethylhydrazono)pent-2-yl]benzoyl}-L-glutamic Acid] | – | lack of cytotoxic activity | inactivity; also recorded: lost cytotoxic activity | – | – | < 4.00 | pKi ([2]; rhGAR Tfase, read-out: Ki): 6.77; fold less effective than 3 (human AICAR Tfase; 15 vs 3): 30 fold
